In brackets after ≈: the same amount, converted by molar mass.
Legend:
Pasteurella multocida = assay: minimum inhibitory concentration (MIC)
Protocol: (§1)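 Broth microdilution MIC (Sensititre BOPO7F bovine plate, CLSI methods) of 19 antimicrobials against field isolates of P. multocida, M. haemolytica, H. somni (deep nasopharyngeal swabs) and E. coli, Enterococcus spp. (rectal swabs) from weaned dairy heifers. Incubation 16-24 h at 35 C. MIC is the lowest concentration preventing visible growth. Values with <= or > lie at the tested range limits. Trimethoprim-sulfamethoxazole is given as the trimethoprim component of a 1:19 mixture.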

Enterococcus spp. = assay: minimum inhibitory concentration (MIC)
Protocol: as §1

CS(=O)(=O)c1ccc([C@@H](O)[C@@H](CF)NC(=O)C(Cl)Cl)cc1 [Florfenicol]
minimum inhibitory concentration [µg/mL]
Details	Enterococcus spp.	Pasteurella multocida
isolate (source animal id): 2	2 (≈ 5.58 µM)	–
isolate (source animal id): 10	–	8 (≈ 22.3 µM)
isolate (source animal id): 11	–	8 (≈ 22.3 µM)
isolate (source animal id): 12	–	8 (≈ 22.3 µM)
isolate (source animal id): 19	–	8 (≈ 22.3 µM)
isolate (source animal id): 23	–	8 (≈ 22.3 µM)
isolate (source animal id): 26	–	8 (≈ 22.3 µM)
isolate (source animal id): 35	> 8	–
isolate (source animal id): 42	2 (≈ 5.58 µM)	–
isolate (source animal id): 44	2 (≈ 5.58 µM)	–
isolate (source animal id): 79	4 (≈ 11.2 µM)	–
isolate (source animal id): 88	2 (≈ 5.58 µM)	–
isolate (source animal id): 91	2 (≈ 5.58 µM)	–
isolate (source animal id): 92	2 (≈ 5.58 µM)	–
isolate (source animal id): 98	–	8 (≈ 22.3 µM)
isolate (source animal id): 104	–	0.5 (≈ 1.4 µM)
isolate (source animal id): 111	2 (≈ 5.58 µM)	–
isolate (source animal id): 115	–	8 (≈ 22.3 µM)
isolate (source animal id): 117	–	0.5 (≈ 1.4 µM)
isolate (source animal id): 118	–	8 (≈ 22.3 µM)
isolate (source animal id): 121	–	8 (≈ 22.3 µM)
isolate (source animal id): 122	> 8	–
isolate (source animal id): 123	2 (≈ 5.58 µM)	–
isolate (source animal id): 124	–	1 (≈ 2.79 µM)
isolate (source animal id): 125	–	8 (≈ 22.3 µM)
isolate (source animal id): 128	–	8 (≈ 22.3 µM)
isolate (source animal id): 131	–	> 8
isolate (source animal id): 133	2 (≈ 5.58 µM)	–
isolate (source animal id): 135	–	> 8
isolate (source animal id): 136	–	8 (≈ 22.3 µM)
isolate (source animal id): 140	–	0.5 (≈ 1.4 µM)
isolate (source animal id): 144	–	8 (≈ 22.3 µM)
isolate (source animal id): 146	–	8 (≈ 22.3 µM)
isolate (source animal id): 150	–	8 (≈ 22.3 µM)
isolate (source animal id): 151	–	8 (≈ 22.3 µM)
isolate (source animal id): 153	–	8 (≈ 22.3 µM)
isolate (source animal id): 155	–	0.5 (≈ 1.4 µM)
isolate (source animal id): 157	–	8 (≈ 22.3 µM)
isolate (source animal id): 158	2 (≈ 5.58 µM)	–
isolate (source animal id): 160	–	8 (≈ 22.3 µM)
isolate (source animal id): 164	–	8 (≈ 22.3 µM)
isolate (source animal id): 165	–	8 (≈ 22.3 µM)
isolate (source animal id): 167	–	0.5 (≈ 1.4 µM)
isolate (source animal id): 168	2 (≈ 5.58 µM)	1 (≈ 2.79 µM)
isolate (source animal id): 169	2 (≈ 5.58 µM)	0.5 (≈ 1.4 µM)
isolate (source animal id): 170	–	> 8
isolate (source animal id): 171	4 (≈ 11.2 µM)	0.5 (≈ 1.4 µM)
isolate (source animal id): 172	–	0.5 (≈ 1.4 µM)
isolate (source animal id): 173	–	1 (≈ 2.79 µM)
isolate (source animal id): 174	–	0.5 (≈ 1.4 µM)
isolate (source animal id): 175	4 (≈ 11.2 µM)	0.5 (≈ 1.4 µM)
isolate (source animal id): 176	–	0.5 (≈ 1.4 µM)
isolate (source animal id): 177	4 (≈ 11.2 µM)	0.5 (≈ 1.4 µM)
isolate (source animal id): 178	–	0.5 (≈ 1.4 µM)
isolate (source animal id): 179	–	0.5 (≈ 1.4 µM)
isolate (source animal id): 181	2 (≈ 5.58 µM)	–
isolate (source animal id): 182	2 (≈ 5.58 µM)	0.5 (≈ 1.4 µM)
isolate (source animal id): 183	2 (≈ 5.58 µM)	–
isolate (source animal id): 187	2 (≈ 5.58 µM)	–
isolate (source animal id): 190	2 (≈ 5.58 µM)	–
isolate (source animal id): 192	–	0.5 (≈ 1.4 µM)
isolate (source animal id): 193	–	0.5 (≈ 1.4 µM)
isolate (source animal id): 194	2 (≈ 5.58 µM)	–
isolate (source animal id): 195	2 (≈ 5.58 µM)	0.5 (≈ 1.4 µM)
isolate (source animal id): 196	–	0.5 (≈ 1.4 µM)
isolate (source animal id): 197	2 (≈ 5.58 µM)	0.5 (≈ 1.4 µM)
isolate (source animal id): 198	–	1 (≈ 2.79 µM)
isolate (source animal id): 199	–	0.5 (≈ 1.4 µM)
isolate (source animal id): 200	–	0.5 (≈ 1.4 µM)
isolate (source animal id): 201	–	0.5 (≈ 1.4 µM)
isolate (source animal id): 203	–	0.5 (≈ 1.4 µM)
isolate (source animal id): 204	–	0.5 (≈ 1.4 µM)
isolate (source animal id): 205	–	1 (≈ 2.79 µM)
isolate (source animal id): 206	–	0.5 (≈ 1.4 µM)
isolate (source animal id): 207	–	0.5 (≈ 1.4 µM)
isolate (source animal id): 208	–	0.5 (≈ 1.4 µM)
isolate (source animal id): 209	–	0.5 (≈ 1.4 µM)
isolate (source animal id): 210	–	1 (≈ 2.79 µM)
isolate (source animal id): 211	2 (≈ 5.58 µM)	–
isolate (source animal id): 213	–	0.5 (≈ 1.4 µM)
isolate (source animal id): 214	2 (≈ 5.58 µM)	–
isolate (source animal id): 216	–	0.5 (≈ 1.4 µM)
isolate (source animal id): 222	2 (≈ 5.58 µM)	–
isolate (source animal id): 223	2 (≈ 5.58 µM)	1 (≈ 2.79 µM)
isolate (source animal id): 227	–	0.5 (≈ 1.4 µM)
isolate (source animal id): 228	2 (≈ 5.58 µM)	–
isolate (source animal id): 229	–	8 (≈ 22.3 µM)
isolate (source animal id): 230	2 (≈ 5.58 µM)	–
isolate (source animal id): 233	–	0.5 (≈ 1.4 µM)
isolate (source animal id): 234	–	8 (≈ 22.3 µM)
isolate (source animal id): 235	2 (≈ 5.58 µM)	–
isolate (source animal id): 236	2 (≈ 5.58 µM)	–
isolate (source animal id): 237	–	8 (≈ 22.3 µM)
isolate (source animal id): 239	2 (≈ 5.58 µM)	–
isolate (source animal id): 241	2 (≈ 5.58 µM)	8 (≈ 22.3 µM)
isolate (source animal id): 244	2 (≈ 5.58 µM)	–
isolate (source animal id): 245	–	0.5 (≈ 1.4 µM)
isolate (source animal id): 246	2 (≈ 5.58 µM)	–
isolate (source animal id): 247	4 (≈ 11.2 µM)	0.5 (≈ 1.4 µM)
isolate (source animal id): 250	2 (≈ 5.58 µM)	8 (≈ 22.3 µM)
isolate (source animal id): 252	4 (≈ 11.2 µM)	–
isolate (source animal id): 254	–	> 8
isolate (source animal id): 255	–	4 (≈ 11.2 µM)
isolate (source animal id): 258	–	0.5 (≈ 1.4 µM)
isolate (source animal id): 261	–	8 (≈ 22.3 µM)
isolate (source animal id): 262	–	> 8
isolate (source animal id): 268	2 (≈ 5.58 µM)	–
isolate (source animal id): 269	–	0.5 (≈ 1.4 µM)
isolate (source animal id): 270	–	8 (≈ 22.3 µM)
isolate (source animal id): 274	–	> 8
isolate (source animal id): 275	–	> 8
isolate (source animal id): 276	–	0.5 (≈ 1.4 µM)
isolate (source animal id): 277	–	0.5 (≈ 1.4 µM)
isolate (source animal id): 278	–	> 8
isolate (source animal id): 279	–	1 (≈ 2.79 µM)
isolate (source animal id): 280	–	0.5 (≈ 1.4 µM)
isolate (source animal id): 282	1 (≈ 2.79 µM)	–
isolate (source animal id): 284	–	8 (≈ 22.3 µM)
isolate (source animal id): 285	4 (≈ 11.2 µM)	> 8
isolate (source animal id): 287	–	> 8
isolate (source animal id): 289	2 (≈ 5.58 µM)	–
isolate (source animal id): 290	2 (≈ 5.58 µM)	> 8
isolate (source animal id): 294	–	> 8
isolate (source animal id): 295	–	8 (≈ 22.3 µM)
isolate (source animal id): 296	2 (≈ 5.58 µM)	0.5 (≈ 1.4 µM)
isolate (source animal id): 298	2 (≈ 5.58 µM)	–
isolate (source animal id): 301	2 (≈ 5.58 µM)	–
isolate (source animal id): 307	–	> 8
isolate (source animal id): 310	4 (≈ 11.2 µM)	> 8
isolate (source animal id): 311	–	8 (≈ 22.3 µM)
isolate (source animal id): 312	–	8 (≈ 22.3 µM)
isolate (source animal id): 313	–	> 8
isolate (source animal id): 315	–	> 8
isolate (source animal id): 316	–	> 8
isolate (source animal id): 320	1 (≈ 2.79 µM)	–
isolate (source animal id): 331	2 (≈ 5.58 µM)	–
isolate (source animal id): 333	2 (≈ 5.58 µM)	–
isolate (source animal id): 341	> 8	–
